This passage reports EC50, Ep and K results from ChEMBL document CHEMBL4270492, “Free radicals and polyphenols: The redox chemistry of neurodegenerative diseases” (Eur J Med Chem, 2017).

Data set [1] can be described thus: Antioxidant activity assessed as DPPH free radical scavenging activity. The class given is functional.
The nature of data set [2]: Electrochemical behaviour of the compound assessed as peak potential using disposable screen-printed carbon electrodes. The class given is physicochemical.
A short description of data set [3]: Antioxidant activity assessed as effect on linolenic acid autooxidation in presence of 0.015 M SDS based micellar systems. In kind it is functional.
A short description of data set [4]: Antioxidant activity assessed as effect on linolenic acid autooxidation in presence of DLPC liposomes. The class given is functional.
A short description of data set [5]: Antioxidant activity assessed as effect on linolenic acid autooxidation in presence of 0.5 M SDS based micellar systems. The class given is functional.
Data set [6] is described as follows: Antioxidant activity assessed as hydroxyl radical scavenging activity by measuring rate constant using UV irradiation by ESR spin trapping method. The class given is functional.
Data set [7] can be described thus: Antioxidant activity assessed as superoxide anion free radical scavenging activity by measuring rate constant using UV irradiation by ESR spin trapping method. In kind it is functional.
A short description of data set [8]: Antioxidant activity assessed as singlet oxygen scavenging activity by measuring rate constant using VIS irradiation by ESR spin trapping method. The class given is functional.
Data set [9] is described as follows: Antioxidant activity assessed as alkoxyl radical scavenging activity by measuring rate constant by ESR spin trapping method. In kind it is functional.
A short description of data set [10]: Electrochemical behaviour of the compound assessed as peak potential. In kind it is physicochemical.
A short description of data set [11]: Metal chelating activity assessed as equilibrium constant for formation of compound-Al3+ complex formation.
A short description of data set [12]: Metal chelating activity assessed as equilibrium constant for formation of compound-Cu2+ complex formation.
A short description of data set [13]: Metal chelating activity assessed as equilibrium constant for formation of compound-Fe2+ complex formation.

Consider `O=C(O)c1cc(O)ccc1O` [GENTISIC ACID], for which the EC50 in [1] is 0.0292 µmol.
Regarding `O=C(O)/C=C/c1cccc(O)c1`, the Ep in data set [2] amounted to 780 mV. Besides, in data set [1], the EC50 was more than 300 µmol.
Take `Cc1cc(C(C)(C)C)c(O)c(C(C)(C)C)c1`: the K was found to be 3.4 ×10⁴ /M/s in data set [3], 0.37 ×10⁴ /M/s in [4] and 1.1 ×10⁴ /M/s in [5].
Take `COc1cc(C(=O)O)cc(OC)c1O` [SYRINGIC ACID]: the Ep in data set [2] is given as 490 mV. For the same compound, the EC50 in [1] turned out to be 0.0427 µmol.
On to `O=C(/C=C/c1ccc(O)c(O)c1)O[C@@H]1C[C@](O)(C(=O)O)C[C@@H](O)[C@H]1O`, for which the K in data set [6] was 9.6 ×10⁹ /M/s; in data set [7], 288 ×10³ /M/s; in data set [8] it was 38.6 ×10⁷ /M/s; in data set [9], 111 ×10⁵ /M/s.
Take `Oc1nc(O)c2nc(O)[nH]c2n1`: the K in [6] was determined as 9.52 ×10⁹ /M/s; in data set [7], 10.6 ×10³ /M/s; in data set [8], 2.3 ×10⁷ /M/s; in data set [9] it was 106 ×10⁵ /M/s.
As for `O=C(O)/C=C/c1cc(O)c(O)c(O)c1`, the Ep in [10] is given as 384 mV.
For `O=C(O)/C=C/c1ccc(O)c(O)c1` [CAFFEIC ACID], the Ep worked out at 450 mV in [2] and 183 mV in data set [10]. Further, the K in data set [6] was 8.06 ×10⁹ /M/s; in data set [7] it was 10.6 ×10³ /M/s; in data set [8] it was 54.7 ×10⁷ /M/s; in data set [9] it was 75.9 ×10⁵ /M/s. Also, the EC50 in [1] was found to be 0.0478 µmol.
For `N[C@@H](CCC(=O)N[C@@H](CS)C(=O)NCC(=O)O)C(=O)O`, the K worked out at 16.4 ×10⁹ /M/s in data set [6], 1.11 ×10³ /M/s in data set [7], 93.9 ×10⁷ /M/s in data set [8] and 27.6 ×10⁵ /M/s in data set [9].
On to `COc1cc(/C=C/C(=O)O)ccc1O` [FERULATE], for which the results for the Ep in data set [2] and in data set [10] were 447 mV and 335 mV, respectively. In data set [1], the EC50 is 0.0927 µmol.
`O=C(O)CC(O)(CC(=O)O)C(=O)O`: the K in data set [11] was 1000 to 100000 M⁻¹; in [12], 1000 to 100000 M⁻¹; in data set [13] it was 1600 M⁻¹.
Take `O=c1c(-c2ccc(O)cc2)coc2cc(O)cc(O)c12`: the K was 11.8 ×10⁹ /M/s in data set [6], 2.75 ×10³ /M/s in [7], 19.1 ×10⁷ /M/s in data set [8] and 20.7 ×10⁵ /M/s in data set [9].
With `O=C(O)/C=C/c1ccccc1O` [O-COUMARIC ACID], in [2], the Ep is on record as 750 mV. In data set [1], the EC50 was 130.05 µmol.
As for `COc1cc(C(=O)O)ccc1O` [VANILLIC ACID], the Ep in data set [2] stood at 730 mV. In addition, the EC50 in data set [1] amounted to 14.37 µmol.
Take `CC(=O)N[C@@H](CS)C(=O)O`: the K is 13.6 ×10⁹ /M/s in data set [6], 0.5 ×10³ /M/s in data set [7], 20.5 ×10⁷ /M/s in data set [8] and 19.3 ×10⁵ /M/s in data set [9].
Regarding `COc1cc(/C=C/C(=O)O)cc(OC)c1O` [SINAPINATE], the EC50 in data set [1] was determined as 0.0724 µmol. In addition, in [10], the Ep was in the range of 188 to 295 mV.
Regarding `COc1cc(C(C)(C)C)c(O)c(C(C)(C)C)c1`, the K in data set [3] worked out at 2.5 ×10⁴ /M/s; in data set [4], 2.75 ×10⁴ /M/s; in data set [5], 1 ×10⁴ /M/s.
As to `Cc1c(C)c2c(c(C)c1O)CCC(C)(C(=O)O)O2` (centres undefined), the K turned out to be 24.8 ×10⁹ /M/s in data set [6]; 2.1 ×10³ /M/s in data set [7]; 1 ×10⁴ /M/s in data set [3]; 0.58 ×10⁴ /M/s in [4]; 6.22 ×10⁷ /M/s in data set [8]; 110000 M⁻¹ s⁻¹ in [5]. In data set [9], the K came out at 48.3 ×10⁵ /M/s.
On to `O=C(O)c1cc(O)c(O)c(O)c1` [GALLIC ACID], for which the EC50 in data set [1] came out at 0.0237 µmol. Further, the Ep in data set [10] is 110 to 544 mV.
Regarding `C[C@@H]1O[C@@H](OC[C@H]2O[C@@H](Oc3c(-c4ccc(O)c(O)c4)oc4cc(O)cc(O)c4c3=O)[C@H](O)[C@@H](O)[C@@H]2O)[C@H](O)[C@H](O)[C@H]1O`, the K in [6] stood at 6.38 ×10⁹ /M/s; in data set [7], 15.4 ×10³ /M/s; in [8], 34.8 ×10⁷ /M/s; in [9] it was 69 ×10⁵ /M/s.
As to `O=C(O)c1ccc(O)cc1` [PARABEN], in data set [2], the Ep is recorded as 870 mV. In addition, in [1], the EC50 was more than 800 µmol.
With `O=C(O)c1ccc(O)c(O)c1` [PROTOCATECHUIC ACID], the Ep in data set [2] is 410 mV; in [10] it was 188 to 317 mV. In addition, the EC50 in [1] came to 0.0574 µmol.
Taken in the same sequence, the figures for `O=C(O)/C=C/c1ccc(O)cc1` [COUMARIC ACID] were 670 mV, 736 mV and 66.29 µmol.
For `O=C(O)c1ccccc1O` [SALICYLIC ACID], in data set [2], the Ep is 940 mV. The EC50 in [1] was more than 800 µmol.
